Key:
Estrogen receptor = biological target: T1, Estrogen receptor (Homo sapiens, UniProt P03372)
T1 sequence (P03372 whole entry): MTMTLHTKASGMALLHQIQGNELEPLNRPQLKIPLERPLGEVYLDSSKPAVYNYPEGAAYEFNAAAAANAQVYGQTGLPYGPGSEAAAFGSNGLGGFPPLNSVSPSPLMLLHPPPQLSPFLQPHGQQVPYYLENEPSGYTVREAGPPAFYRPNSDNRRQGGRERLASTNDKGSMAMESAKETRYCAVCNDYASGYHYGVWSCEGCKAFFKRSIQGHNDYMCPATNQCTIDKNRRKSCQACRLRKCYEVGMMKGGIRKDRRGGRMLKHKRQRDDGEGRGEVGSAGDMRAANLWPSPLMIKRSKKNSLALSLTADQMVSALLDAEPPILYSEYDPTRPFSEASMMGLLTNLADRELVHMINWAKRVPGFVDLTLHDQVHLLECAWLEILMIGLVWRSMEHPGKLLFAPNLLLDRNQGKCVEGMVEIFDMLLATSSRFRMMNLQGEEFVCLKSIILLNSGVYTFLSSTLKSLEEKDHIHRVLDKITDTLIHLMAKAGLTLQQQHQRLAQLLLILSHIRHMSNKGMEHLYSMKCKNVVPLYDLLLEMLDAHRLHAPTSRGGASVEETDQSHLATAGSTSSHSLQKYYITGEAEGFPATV
Description: Binding affinity against human estrogen receptor alpha in competitive binding assay

Estrogen receptor beta = Estrogen receptor beta (Homo sapiens, UniProt Q92731)
Sequence of Estrogen receptor beta (Q92731 whole entry): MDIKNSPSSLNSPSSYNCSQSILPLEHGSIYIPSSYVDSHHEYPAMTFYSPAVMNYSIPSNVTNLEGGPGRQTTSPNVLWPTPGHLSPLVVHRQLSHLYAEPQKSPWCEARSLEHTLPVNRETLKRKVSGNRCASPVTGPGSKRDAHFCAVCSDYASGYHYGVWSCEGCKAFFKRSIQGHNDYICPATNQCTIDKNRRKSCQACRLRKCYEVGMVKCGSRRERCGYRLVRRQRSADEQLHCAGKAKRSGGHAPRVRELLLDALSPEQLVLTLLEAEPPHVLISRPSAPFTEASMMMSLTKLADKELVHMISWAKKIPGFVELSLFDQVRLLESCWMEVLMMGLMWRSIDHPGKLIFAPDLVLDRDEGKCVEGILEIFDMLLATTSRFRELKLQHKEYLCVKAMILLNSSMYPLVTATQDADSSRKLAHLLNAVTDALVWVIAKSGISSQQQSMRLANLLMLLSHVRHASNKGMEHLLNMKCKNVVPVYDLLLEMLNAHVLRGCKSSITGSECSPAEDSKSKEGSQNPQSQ
Description: Binding affinity against human estrogen receptor beta (ER beta) in competitive binding assay

SMILES: C[C@@H]1C(=O)c2ccc(O)cc2O[C@@H]1c1ccc(OCCN2CCCCC2)cc1
- IC50 (Estrogen receptor): 3560 nM
- IC50 (Estrogen receptor beta): 5640 nM

SMILES: CCc1cc(O)cc2c1C(=O)[C@@H](c1ccc(O)cc1)[C@@H](c1ccc(OCCN3CCCCC3)cc1)O2
- IC50 (Estrogen receptor): 68 nM
- IC50 (Estrogen receptor beta): 152 nM

SMILES: Oc1ccc([C@@H]2Cc3ccc(O)cc3O[C@@H]2c2ccc(OCCN3CCCCC3)cc2)cc1
- IC50 (Estrogen receptor): 6.7 nM
- IC50 (Estrogen receptor beta): 8.9 nM

SMILES: Oc1ccc([C@H]2[C@@H](c3ccc(OCCN4CCCCC4)cc3)Oc3cc(O)ccc3[C@@H]2O)cc1
- IC50 (Estrogen receptor): 929 nM
- IC50 (Estrogen receptor beta): 7000 nM

SMILES: CCCc1cc(O)cc2c1C(=O)[C@@H](c1ccc(O)cc1)[C@@H](c1ccc(OCCN3CCCCC3)cc1)O2
- IC50 (Estrogen receptor): 652 nM
- IC50 (Estrogen receptor beta): 207 nM

SMILES: C[C@@H]1C(=O)c2c(O)cc(O)cc2O[C@@H]1c1ccc(OCCN2CCCCC2)cc1
- IC50 (Estrogen receptor): 551 nM
- IC50 (Estrogen receptor beta): 1200 nM

SMILES: COc1cc([C@@H]2C(=O)c3ccc(O)cc3O[C@@H]2c2ccc(OCCN3CCCCC3)cc2)ccc1O
- IC50 (Estrogen receptor): 413 nM
- IC50 (Estrogen receptor beta): > 10000 nM

SMILES: COc1cc(O)ccc1[C@@H]1C(=O)c2ccc(O)cc2O[C@@H]1c1ccc(OCCN2CCCCC2)cc1
- IC50 (Estrogen receptor): 149 nM
- IC50 (Estrogen receptor beta): 1360 nM

SMILES: CC(C)[C@@H]1C(=O)c2ccc(O)cc2O[C@@H]1c1ccc(OCCN2CCCCC2)cc1
- IC50 (Estrogen receptor): 89 nM
- IC50 (Estrogen receptor beta): 1200 nM

SMILES: O/N=C1\c2ccc(O)cc2O[C@H](c2ccc(OCCN3CCCCC3)cc2)[C@@H]1c1ccc(O)cc1
- IC50 (Estrogen receptor): 1040 nM
- IC50 (Estrogen receptor beta): 8610 nM

SMILES: CC(C)[C@H]1C(=O)c2ccc(O)cc2O[C@@H]1c1ccc(OCCN2CCCCC2)cc1
- IC50 (Estrogen receptor): 109 nM
- IC50 (Estrogen receptor beta): 930 nM

SMILES: O=C1c2c(F)cc(O)cc2O[C@H](c2ccc(OCCN3CCCCC3)cc2)[C@@H]1c1ccc(O)cc1
- IC50 (Estrogen receptor): 105 nM
- IC50 (Estrogen receptor beta): 5390 nM

SMILES: O=C1c2ccccc2O[C@H](c2ccc(OCCN3CCCCC3)cc2)[C@@H]1c1ccc(O)cc1
- IC50 (Estrogen receptor): 179 nM
- IC50 (Estrogen receptor beta): 510 nM

SMILES: C[C@H]1C(=O)c2ccc(O)cc2O[C@@H]1c1ccc(OCCN2CCCCC2)cc1
- IC50 (Estrogen receptor): 1410 nM
- IC50 (Estrogen receptor beta): > 10000 nM

SMILES: CCCCCc1cc(O)cc2c1C(=O)[C@@H](c1ccc(O)cc1)[C@@H](c1ccc(OCCN3CCCCC3)cc1)O2
- IC50 (Estrogen receptor): 71 nM
- IC50 (Estrogen receptor beta): 454 nM

SMILES: O=C1c2ccc(O)cc2O[C@H](c2ccc(O)cc2)[C@@H]1c1ccc(O)cc1
- IC50 (Estrogen receptor): 490 nM
- IC50 (Estrogen receptor beta): 598 nM

SMILES: Cc1cc([C@@H]2C(=O)c3ccc(O)cc3O[C@@H]2c2ccc(OCCN3CCCCC3)cc2)cc(C)c1O
- IC50 (Estrogen receptor): 1050 nM
- IC50 (Estrogen receptor beta): > 10000 nM

SMILES: O=C1c2ccc(O)cc2O[C@H](c2ccc(OCCN3CCCCC3)cc2)[C@@H]1c1ccccc1
- IC50 (Estrogen receptor): 531 nM
- IC50 (Estrogen receptor beta): 10000 nM

SMILES: O=C1c2ccc(O)cc2O[C@H](c2ccc(OCCN3CCCCC3)cc2)[C@H]1c1ccc(O)cc1
- IC50 (Estrogen receptor): 49 nM
- IC50 (Estrogen receptor beta): 1950 nM

SMILES: O=C1c2ccc(O)cc2O[C@H](c2ccc(OCCN3CCCCC3)cc2)[C@@H]1c1ccc(O)cc1
- IC50 (Estrogen receptor): 31 nM
- IC50 (Estrogen receptor beta): 2050 nM

SMILES: Cc1cc(O)cc2c1C(=O)[C@@H](c1ccc(O)cc1)[C@@H](c1ccc(OCCN3CCCCC3)cc1)O2
- IC50 (Estrogen receptor): 14 nM
- IC50 (Estrogen receptor beta): 546 nM

SMILES: O=C1c2c(Cl)cc(O)cc2O[C@H](c2ccc(OCCN3CCCCC3)cc2)[C@@H]1c1ccc(O)cc1
- IC50 (Estrogen receptor): 58 nM
- IC50 (Estrogen receptor beta): 1270 nM

From ChEMBL document CHEMBL1147620, “Estrogen receptor ligands. Part 1: The discovery of flavanoids with subtype selectivity” (Bioorg Med Chem Lett, 2004)
